{
  "source": "patent US20260232763A1",
  "about": "(Kadmon Corporation, LLC, priority 2023, published 2026)",
  "key": {"human serum albumin": {"target": "human serum albumin (Homo sapiens, UniProt P02768)", "sequence (P02768 25-609)": "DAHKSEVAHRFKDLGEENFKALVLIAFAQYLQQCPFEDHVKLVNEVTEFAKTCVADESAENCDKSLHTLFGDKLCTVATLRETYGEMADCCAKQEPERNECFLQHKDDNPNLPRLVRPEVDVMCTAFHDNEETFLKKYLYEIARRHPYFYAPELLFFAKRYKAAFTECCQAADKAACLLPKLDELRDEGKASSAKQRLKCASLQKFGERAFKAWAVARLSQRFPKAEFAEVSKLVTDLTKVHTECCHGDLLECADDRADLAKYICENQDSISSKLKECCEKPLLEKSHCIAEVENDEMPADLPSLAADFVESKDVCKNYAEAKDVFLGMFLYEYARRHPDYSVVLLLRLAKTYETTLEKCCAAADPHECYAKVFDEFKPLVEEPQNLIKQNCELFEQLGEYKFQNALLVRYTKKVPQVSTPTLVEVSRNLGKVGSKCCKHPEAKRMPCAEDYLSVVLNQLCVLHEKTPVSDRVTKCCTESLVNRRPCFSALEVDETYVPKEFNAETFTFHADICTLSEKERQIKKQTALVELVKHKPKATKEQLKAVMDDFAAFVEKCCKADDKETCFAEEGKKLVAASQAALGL", "conditions": "in vitro; cited from earlier work"}, "[1]": {"tested_on": "human peripheral blood lymphocytes (HPBL)", "conditions": "chromosome aberration; cited from earlier work"}, "pregnant rabbits": {"tested_on": "pregnant rabbits", "conditions": "cited from earlier work"}, "rats": {"tested_on": "rats", "conditions": "oral; cited from earlier work"}, "[2]": {"tested_on": "bacterial mutagenicity (Ames)", "conditions": "cited from earlier work"}, "CYP1A2": {"target": "T1, CYP1A2 (Homo sapiens, UniProt P05177)", "T1 sequence (P05177 1-516)": "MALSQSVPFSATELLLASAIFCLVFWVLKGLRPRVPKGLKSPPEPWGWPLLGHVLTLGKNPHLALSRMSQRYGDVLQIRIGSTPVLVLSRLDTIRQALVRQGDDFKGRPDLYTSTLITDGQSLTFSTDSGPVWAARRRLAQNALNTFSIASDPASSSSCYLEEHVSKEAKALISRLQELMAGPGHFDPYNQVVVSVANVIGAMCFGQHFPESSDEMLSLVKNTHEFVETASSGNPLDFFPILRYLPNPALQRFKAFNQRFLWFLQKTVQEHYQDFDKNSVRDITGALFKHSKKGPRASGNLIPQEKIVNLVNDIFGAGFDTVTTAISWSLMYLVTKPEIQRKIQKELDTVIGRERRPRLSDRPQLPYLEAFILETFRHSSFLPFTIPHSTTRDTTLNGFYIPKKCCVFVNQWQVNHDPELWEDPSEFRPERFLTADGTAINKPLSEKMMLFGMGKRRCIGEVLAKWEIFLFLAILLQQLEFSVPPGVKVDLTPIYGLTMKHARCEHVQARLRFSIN", "conditions": "in vitro; cited from earlier work"}, "UGT1A1": {"target": "T2, UGT1A1 (Homo sapiens, UniProt P22309)", "T2 sequence (P22309 26-533)": "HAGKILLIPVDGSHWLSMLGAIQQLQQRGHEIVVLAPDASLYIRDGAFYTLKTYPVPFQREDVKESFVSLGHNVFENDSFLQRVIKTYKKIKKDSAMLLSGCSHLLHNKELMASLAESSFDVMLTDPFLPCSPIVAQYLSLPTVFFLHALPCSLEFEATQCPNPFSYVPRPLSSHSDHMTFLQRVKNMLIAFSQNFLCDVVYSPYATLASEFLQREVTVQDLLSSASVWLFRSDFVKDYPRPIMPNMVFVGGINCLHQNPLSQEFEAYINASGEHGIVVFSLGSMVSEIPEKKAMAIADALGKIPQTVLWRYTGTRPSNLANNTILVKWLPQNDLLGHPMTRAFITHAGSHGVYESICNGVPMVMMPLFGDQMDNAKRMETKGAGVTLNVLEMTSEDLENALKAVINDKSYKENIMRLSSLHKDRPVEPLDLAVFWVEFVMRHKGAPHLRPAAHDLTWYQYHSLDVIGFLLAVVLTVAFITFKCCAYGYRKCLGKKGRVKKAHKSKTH", "conditions": "in vitro; cited from earlier work"}, "pregnant rats": {"tested_on": "pregnant rats", "conditions": "cited from earlier work"}, "[3]": {"tested_on": "human […]1-acid glycoprotein", "conditions": "in vitro; cited from earlier work"}, "CYP3A4": {"target": "CYP3A4 (Homo sapiens, UniProt P08684)", "sequence (P08684 whole entry)": "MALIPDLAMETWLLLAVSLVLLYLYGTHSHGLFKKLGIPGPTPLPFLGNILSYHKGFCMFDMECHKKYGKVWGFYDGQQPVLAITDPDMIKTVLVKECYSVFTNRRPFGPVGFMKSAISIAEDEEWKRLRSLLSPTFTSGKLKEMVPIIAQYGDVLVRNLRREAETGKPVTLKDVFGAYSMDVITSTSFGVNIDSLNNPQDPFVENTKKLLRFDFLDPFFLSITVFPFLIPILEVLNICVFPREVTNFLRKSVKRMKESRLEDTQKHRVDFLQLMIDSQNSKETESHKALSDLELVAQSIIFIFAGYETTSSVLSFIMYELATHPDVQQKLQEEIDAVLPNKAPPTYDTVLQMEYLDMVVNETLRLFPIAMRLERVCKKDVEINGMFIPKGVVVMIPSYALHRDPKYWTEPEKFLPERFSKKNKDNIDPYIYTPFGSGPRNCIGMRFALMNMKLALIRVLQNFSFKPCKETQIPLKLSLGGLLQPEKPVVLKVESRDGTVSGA", "test": "in vitro metabolism", "format": "in vitro ADME", "conditions": "in vitro assessments"}, "clinical [4]": {"test": "clinical", "conditions": "male, human, in vivo", "description": "(§1) On Day 10, the victim and perpetrator IMPs were administered simultaneously.\n(§2) On the evening before each dose, participants were provided with a light snack and were required to fast from all food and drink (except water) for a minimum of 10 hours until the following morning. All study interventions were administered in the fed state, following completion of a standard breakfast (with dosing planned to occur 30 minutes after the start of the breakfast).\n(§3) The PK parameters underwent a natural logarithmic transformation and were analyzed using a mixed effect modelling technique. Adjusted geometric mean ratios and 90% confidence intervals (CIs) of the ratios were obtained for each comparison. The ratio was defined as test/reference. In addition, the intraparticipant variability were also presented. […] No formal interim analyses were performed for this study."}, "CYP2C19": {"target": "CYP2C19 (Homo sapiens, UniProt P33261)", "sequence (P33261 whole entry)": "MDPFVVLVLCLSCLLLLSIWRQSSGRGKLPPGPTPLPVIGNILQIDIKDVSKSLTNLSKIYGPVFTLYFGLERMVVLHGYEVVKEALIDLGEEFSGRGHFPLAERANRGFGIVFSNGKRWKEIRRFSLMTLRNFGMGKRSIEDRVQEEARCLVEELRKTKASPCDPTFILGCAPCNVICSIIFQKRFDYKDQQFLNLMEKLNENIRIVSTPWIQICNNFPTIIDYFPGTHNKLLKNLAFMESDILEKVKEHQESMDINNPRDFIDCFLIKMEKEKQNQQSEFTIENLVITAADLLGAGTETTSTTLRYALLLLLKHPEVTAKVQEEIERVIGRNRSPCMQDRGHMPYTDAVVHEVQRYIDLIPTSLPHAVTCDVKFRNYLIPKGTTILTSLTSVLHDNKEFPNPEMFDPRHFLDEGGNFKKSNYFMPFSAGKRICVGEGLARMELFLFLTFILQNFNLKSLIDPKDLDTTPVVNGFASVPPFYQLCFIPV", "conditions": "in vitro; cited from earlier work"}, "[5]": {"conditions": "dosage range of 200 and 400 mg; cited from earlier work"}, "P-gp": {"target": "P-gp (Homo sapiens, UniProt P08183)", "sequence (P08183 whole entry)": "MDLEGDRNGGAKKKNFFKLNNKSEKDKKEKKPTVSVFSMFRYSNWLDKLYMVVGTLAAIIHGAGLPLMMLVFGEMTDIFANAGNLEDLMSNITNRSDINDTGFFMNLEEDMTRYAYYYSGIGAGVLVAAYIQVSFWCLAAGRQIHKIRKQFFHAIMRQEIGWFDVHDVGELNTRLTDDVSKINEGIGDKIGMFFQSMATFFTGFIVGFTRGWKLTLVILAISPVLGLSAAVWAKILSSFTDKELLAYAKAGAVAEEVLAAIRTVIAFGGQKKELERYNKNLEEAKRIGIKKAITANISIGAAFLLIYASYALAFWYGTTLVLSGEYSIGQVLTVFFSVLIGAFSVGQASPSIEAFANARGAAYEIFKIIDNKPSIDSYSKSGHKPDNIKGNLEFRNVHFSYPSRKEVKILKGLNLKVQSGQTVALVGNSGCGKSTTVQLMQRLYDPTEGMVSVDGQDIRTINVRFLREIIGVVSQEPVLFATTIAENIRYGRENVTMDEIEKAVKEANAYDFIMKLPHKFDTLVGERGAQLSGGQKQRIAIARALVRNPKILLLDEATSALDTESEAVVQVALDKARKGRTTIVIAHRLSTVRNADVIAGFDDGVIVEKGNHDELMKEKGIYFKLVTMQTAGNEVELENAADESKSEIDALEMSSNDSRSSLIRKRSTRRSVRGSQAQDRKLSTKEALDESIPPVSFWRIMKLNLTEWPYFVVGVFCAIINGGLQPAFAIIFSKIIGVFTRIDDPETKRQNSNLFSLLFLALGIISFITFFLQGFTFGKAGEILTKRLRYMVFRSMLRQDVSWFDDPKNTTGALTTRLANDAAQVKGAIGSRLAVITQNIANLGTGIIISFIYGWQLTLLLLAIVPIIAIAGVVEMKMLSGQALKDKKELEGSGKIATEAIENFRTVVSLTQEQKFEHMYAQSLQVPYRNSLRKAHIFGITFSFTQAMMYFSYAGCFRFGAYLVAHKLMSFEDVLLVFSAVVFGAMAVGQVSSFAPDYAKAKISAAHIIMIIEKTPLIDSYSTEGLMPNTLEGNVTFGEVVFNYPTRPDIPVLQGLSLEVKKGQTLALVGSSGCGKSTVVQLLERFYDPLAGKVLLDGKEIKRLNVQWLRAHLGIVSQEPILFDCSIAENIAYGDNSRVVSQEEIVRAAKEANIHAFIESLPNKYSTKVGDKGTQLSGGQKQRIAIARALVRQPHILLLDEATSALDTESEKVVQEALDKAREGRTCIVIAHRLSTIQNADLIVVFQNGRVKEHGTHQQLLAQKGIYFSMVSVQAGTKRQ", "conditions": "in vitro, cited from earlier work"}, "[6]": {"test": "Example 3 Part 2 (Regimen B) dabigatran etexilate + belumosudil plasma PK", "format": "in vivo, human", "conditions": "for half-life: read-out: T1/2, geometric mean (converted)", "description": "The ratio was defined as test/reference. In addition, the intraparticipant variability were also presented. […] No formal interim analyses were performed for this study."}, "clinical [7]": {"test": "clinical", "conditions": "male, human, in vivo", "description": "as §1, §2, §3", "remark": "listed apart in the source"}, "dogs": {"tested_on": "dogs", "conditions": "cited from earlier work"}, "rat bone marrow": {"tested_on": "rat bone marrow", "conditions": "rat bone marrow micronucleus; cited from earlier work"}, "[8]": {"conditions": "Part 2, Belumosudil alone (Day 5), 200 mg"}, "[9]": {"conditions": "Part 2, Dabigatran etexilate + belumosudil (Day 12), 200 mg QD"}},
  "note": "Where “and” joins values, the source holds several entries; their conditions need not be identical. Equal values may be shown once.",
  "data": [
    {"smiles": "CC(C)NC(=O)COc1cccc(-c2nc(Nc3ccc4[nH]ncc4c3)c3ccccc3n2)c1", "note": "[belumosudil, 2-{3-[4-(1H-indazol-5-ylamino)-2-quinazolinyl]phenoxy}-N-(propan-2-yl) acetamide]", "values": [
      {"measurement": "binding to human serum albumin", "setting": "human serum albumin", "value": 99.9, "unit": "%"},
      {"measurement": "genotoxicity", "setting": "[1]", "value": "not genotoxic"},
      {"measurement": "maternal exposures (AUC) with adverse developmental outcomes, times the human exposure (AUC) at the recommended dose", "setting": "pregnant rabbits; pregnant rabbits, period of organogenesis", "value": "≥ 0.07", "unit": "times"},
      {"measurement": "dose with embryo-fetal effects", "setting": "pregnant rabbits; rabbits, oral", "value": "≥ 50", "unit": "mg/kg/day"},
      {"measurement": "dose with maternal toxicity (body weight loss and mortality)", "setting": "pregnant rabbits; rabbits, oral", "value": "≥ 125", "unit": "mg/kg/day"},
      {"measurement": "dose with abnormal sperm findings and testes/epididymis organ changes in male rats", "setting": "rats", "value": 275, "unit": "mg/kg/day"},
      {"measurement": "dose with adverse findings in female rats (increased pre- or post-implantation loss, decreased number of viable embryos)", "setting": "rats", "value": 275, "unit": "mg/kg/day"},
      {"measurement": "dose with reduced fertility in treated males or females", "setting": "rats", "value": 275, "unit": "mg/kg/day"},
      {"measurement": "genotoxicity", "setting": "[2]", "value": "not genotoxic"},
      {"measurement": "CYP1A2 inhibition", "setting": "CYP1A2", "value": "inhibitor"},
      {"measurement": "UGT1A1 inhibition", "setting": "UGT1A1", "value": "inhibitor"},
      {"measurement": "maternal exposures (AUC) with adverse developmental outcomes, times the human exposure (AUC) at the recommended dose", "setting": "pregnant rats; pregnant rats, period of organogenesis", "value": "≥ 3", "unit": "times"},
      {"measurement": "dose with fetal malformations", "setting": "pregnant rats; rats, oral, pilot study", "value": "≥ 50", "unit": "mg/kg/day"},
      {"measurement": "dose with maternal toxicity (reduced body weight gain)", "setting": "pregnant rats; rats, oral, pilot study", "value": "150 mg/kg/day and 300 mg/kg/day"},
      {"measurement": "binding to human […]1-acid glycoprotein", "setting": "[3]", "value": 98.6, "unit": "%"},
      {"measurement": "metabolism", "setting": "CYP3A4", "value": "primarily dependent on cytochrome P450 CYP3A4 activity"},
      {"measurement": "Tmax", "setting": "clinical [4]", "value": "1.5 to 3", "unit": "h"},
      {"measurement": "increase of exposures (Cmax and AUC) following multiple dosing", "setting": "clinical [4]", "value": "1.30-1.49 fold"},
      {"measurement": "AUC(0-last), geometric mean", "setting": "clinical [4]; 200 mg", "value": 9200, "unit": "ng·h/mL"},
      {"measurement": "AUC(0-tau), geometric mean", "setting": "clinical [4]; 200 mg", "value": 9330, "unit": "ng·h/mL"},
      {"measurement": "CYP2C19 inhibition", "setting": "CYP2C19", "value": "inhibitor"},
      {"measurement": "Cmax and AUC increase with dose", "setting": "[5]", "value": "approximately proportional"},
      {"measurement": "P-gp inhibition", "setting": "P-gp; at clinically relevant concentrations", "value": "inhibits"},
      {"measurement": "P-gp substrate status", "setting": "P-gp", "value": "substrate of P-gp"},
      {"measurement": "AUC(0-tau), geometric mean", "setting": "[6]; [8]", "value": 8490, "unit": "ng·h/mL"},
      {"measurement": "Cmax, geometric mean", "setting": "[6]; [8]", "value": 1710, "unit": "ng/mL"},
      {"measurement": "T1/2, geometric mean", "setting": "[6]; [8]", "value": 6.199, "unit": "h"},
      {"measurement": "AUC(0-last), geometric mean", "setting": "[6]; [9]", "value": "12 000 ng · h/mL"},
      {"measurement": "Cmax, geometric mean", "setting": "[6]; [9]", "value": 2180, "unit": "ng/mL"},
      {"measurement": "T1/2, geometric mean", "setting": "[6]; [9]", "value": 10.371, "unit": "h"},
      {"measurement": "AUC", "setting": "[6]; male, human, plasma, oral, 200 mg QD, read-out: AUC(0-tau), geometric mean", "value": 11000, "unit": "ng·h/mL"},
      {"measurement": "half-life", "setting": "[6]; male, human, plasma, oral, 200 mg, Part 2, Belumosudil alone (Day 5), 200 mg", "value": "~6", "unit": "h"},
      {"measurement": "half-life", "setting": "[6]; male, human, plasma, oral, 200 mg, Part 2, Dabigatran etexilate + belumosudil (Day 12), 200 mg QD", "value": "~10", "unit": "h"},
      {"measurement": "Tmax", "setting": "[6]; male, human, plasma, oral, 200 mg, read-out: median Tmax", "value": "1.5 to 2", "unit": "h"},
      {"measurement": "Tmax", "setting": "clinical [7]", "value": "1.5 to 2", "unit": "h"},
      {"measurement": "increase of exposures (Cmax and AUC) following multiple dosing", "setting": "clinical [7]", "value": "1.21-1.57 fold"},
      {"measurement": "AUC(0-last), geometric mean", "setting": "clinical [7]; 200 mg", "value": 9710, "unit": "ng·h/mL"},
      {"measurement": "AUC(0-tau), geometric mean", "setting": "clinical [7]; 200 mg", "value": 9710, "unit": "ng·h/mL"},
      {"measurement": "Cmax, geometric mean", "setting": "clinical [7]; 200 mg", "value": 2080, "unit": "ng/mL"},
      {"measurement": "T1/2, geometric mean", "setting": "clinical [7]; 200 mg", "value": 4.901, "unit": "h"},
      {"measurement": "half-life", "setting": "clinical [7]; 200 mg", "value": "~5", "unit": "h"},
      {"measurement": "dose with spermatozoa degeneration", "setting": "dogs", "value": 35, "unit": "mg/kg/day"},
      {"measurement": "genotoxicity", "setting": "rat bone marrow", "value": "not genotoxic"}
    ]}
  ]
}
